Results from patent publication US8394971B2, “Indole derivatives as selective androgen receptor modulators (SARMS)” (Janssen Pharmaceutica N.V., priority 2004, dated 2013).

System: testosterone-enhanced ventral prostate and seminal vesicle weights in castrated male Sprague Dawley rats
Assay: Ventral Prostate and Seminal Vesicle Weight In Vivo Assay
Design: species or system rat
Conditions: immature castrated rats; once daily for five days, usually orally at 40 mg/kg, with testosterone propionate 2 mg/kg s.c.
Method: Immature (approximately 50 g) castrated male Sprague Dawley rats (Charles River) were treated once daily for five days with test compound (usually given orally at 40 mg/kg in a volume of 0.3 mL, in 30% cyclodextrin or 0.5% methylcellulose vehicle) and with testosterone propionate (given subcutaneously by injection at the nape of the neck at 2 mg/kg, in a volume of 0.1 mL in sesame oil). On the sixth day, the rats were euthanized by asphyxiation in carbon dioxide. Ventral prostates and seminal vesicles were removed and their wet weights determined.
A test compound was said to be “active” if the non weight adjusted prostate weight was ≦40 mg or the % Inhibition prostate weight, body weight adjusted was ≧40% @2 mg/day dosage.

| Compound | active / inactive (inhibition of testosterone-enhanced prostate weight) |
| --- | --- |
| CC(C)(O)c1[nH]c2cc(C(F)(F)F)c(C#N)cc2c1Br [compound 288] | active |
| N#Cc1cc2cc(C3(O)CCSC3)[nH]c2cc1C(F)(F)F (stereo not shown) [Compound #15] | inactive |
| CC(C)(O)c1cc2cc(Cl)c(C(F)(F)F)cc2n1S(C)(=O)=O [compound 284] | active |
| CC(C)(O[Si](C)(C)C)c1cc2cc(Cl)c(C(F)(F)F)cc2n1S(C)(=O)=O [compound 270] | inactive |
| CCSCC(C)(O)c1c(C)c2cc(C#N)c(C(F)(F)F)cc2n1C (single isomer, unassigned) [compound 317] | inactive |
| CC(C)(O)c1[nH]c2cc(C(F)(F)F)c([N+](=O)[O-])cc2c1C#N [compound 291] | active |
| CC(C)(O)c1cc2cc([N+](=O)[O-])c(C(F)(F)F)cc2[nH]1 [compound 274] | inactive |
| C=Cc1c(C(C)(C)O)[nH]c2cc(C(F)(F)F)c([N+](=O)[O-])cc12 [compound 281] | inactive |
| CC(C)(O)c1cc2cc([N+](=O)[O-])c(C(F)(F)F)cc2n1S(C)(=O)=O [compound 273] | inactive |
| CCSCC(C)(O)c1cc2cc(C#N)c(C(F)(F)F)cc2n1CC(F)(F)F (racemic) [compound 237] | active |
| CC(C)(O)c1[nH]c2cc(C(F)(F)F)c([N+](=O)[O-])cc2c1Br [compound 277] | active |
| CCSCC(C)(O)c1[nH]c2cc(C(F)(F)F)c(C#N)cc2c1C#C[Si](C)(C)C (racemic) [compound 325] | inactive |
| CCSCC(C)(OC)c1cc2cc([N+](=O)[O-])c(C(F)(F)F)cc2[nH]1 (stereo not shown) [compound 167] | active |
| CCSCC(C)(O)c1cc2cc(Cl)ccc2[nH]1 (racemic) [compound 353] | inactive |
| CC(O)(c1[nH]c2cc(C(F)(F)F)c(C#N)cc2c1Cl)C(F)(F)F (single isomer, unassigned) [compound 345] | active |
| CCSCC(O)(CSCC)c1cc2cc([N+](=O)[O-])c(C(F)(F)F)cc2[nH]1 [compound 13] | inactive |
| CCS(=O)(=O)CC(C)(O)c1cc2cc([N+](=O)[O-])c(C(F)(F)F)cc2n1C (single isomer, unassigned) [compound 250] | active |
| CC(C)(O)c1cc2cc(Cl)c(Cl)cc2[nH]1 [compound 405] | inactive |
| CCSCC(C)(O)c1c(C)c2cc(C#N)c(C(F)(F)F)cc2n1C (single isomer, unassigned) [compound 318] | inactive |
| CC(C)(O[Si](C)(C)C)c1cc2cc([N+](=O)[O-])c(C(F)(F)F)cc2n1S(C)(=O)=O [compound 269] | inactive |
| O=[N+]([O-])c1cc2cc(C3(O)CCSC3)[nH]c2cc1C(F)(F)F (stereo not shown) [compound 18] | inactive |
| CC(O)(c1[nH]c2cc(C(F)(F)F)c(C#N)cc2c1C#C[Si](C)(C)C)C(F)(F)F (single isomer, unassigned) [compound 347] | active |
| CSCC(O)c1cc2cc(C#N)c(C(F)(F)F)cc2[nH]1 (racemic) [compound 408] | inactive |
| CCSCC(C)(O)c1[nH]c2cc(C(F)(F)F)c([N+](=O)[O-])cc2c1I (single isomer, unassigned) [compound 244] | active |
| CC(O)(c1cc2cc(C#N)c(C(F)(F)F)cc2[nH]1)C(F)(F)F (stereo not shown) [Compound #334, 2-(2,2,2-Trifluoro-1-hydroxy-1-methyl-ethyl)-6-trifluoromethyl-1H-indole-5-carbonitrile] | active |
| Cc1c(C(C)(C)O)[nH]c2cc(C(F)(F)F)c(C#N)cc12 [compound 289] | active |
| CCSCC(C)(O)c1cc2cc(C#N)c(C(F)(F)F)cc2n1CC#N (racemic) [compound 323] | inactive |
| CC[S+]([O-])CC(C)(O)c1[nH]c2cc(C(F)(F)F)c(C#N)cc2c1C (mixture of isomers) [compound 319] | active |

| Compound | active / inactive (inhibition of testosterone-enhanced prostate weight) |
| --- | --- |
| CC(C)(O)c1[nH]c2cc(C(F)(F)F)c([N+](=O)[O-])cc2c1Cl [compound 275] | active |
| CCSCC(C)(O)c1[nH]c2cc(C(F)(F)F)c(C#N)cc2c1I (single isomer, unassigned) [compound 349] | active |
| CC[S+]([O-])CC(C)(O)c1[nH]c2cc(C(F)(F)F)c(C#N)cc2c1C (mixture of isomers) [compound 245] | inactive |
| CCSCC(C)(O)c1cc2cc(C#N)c(OC)cc2[nH]1 (racemic) [compound 445] | inactive |
| CCSCC(C)(O)c1cc2cc(C#N)ccc2[nH]1 (racemic) [compound 403] | inactive |
| CC(C)(O)c1[nH]c2cc(C(F)(F)F)c(C#N)cc2c1C#N [compound 295] | inactive |
| CCSCC(C)(O)c1cc2cc([N+](=O)[O-])c(C(F)(F)F)cc2[nH]1 (racemic) [compound 153] | inactive |
| CSCn1c(C(C)(O)C(F)(F)F)cc2cc(C#N)c(C(F)(F)F)cc21 (racemic) [compound 333] | active |
| CC(O)(COc1ccc(C#N)c(C(F)(F)F)c1)c1cc2cc(C#N)c(C(F)(F)F)cc2[nH]1 (stereo not shown) [Compound #429, 2-[2-(4-Cyano-3-trifluoromethyl-phenoxy)-1-hydroxy-1-methyl-ethyl]-6-trifluoromethyl-1H-indole-5-carbonitrile] | inactive |
| CC(O)(c1cc2cc(C#N)c(C(F)(F)F)cc2[nH]1)C(F)(F)F (stereo not shown) [Compound #329, 2-(2,2,2-Trifluoro-1-hydroxy-1-methyl-ethyl)-6-trifluoromethyl-1H-indole-5-carbonitrile] | active |
| CC(C)(O)c1cc2cc(Cl)c(C(F)(F)F)cc2[nH]1 [compound 285] | inactive |
| CCS(=O)(=O)CC(C)(O)c1cc2cc([N+](=O)[O-])c(C(F)(F)F)cc2n1C (single isomer, unassigned) [compound 232] | active |
| CC(C)(O)c1cc2cc(Br)ccc2[nH]1 [compound 294] | inactive |
| CCSCC(C)(O)c1cc2cc(C#N)c(C(F)(F)F)cc2n1CC (racemic) [compound 243] | active |
| CCSCC(C)(O)c1cc2nc(C#N)ccc2[nH]1 (racemic) [compound 6] | inactive |
| CC(O)(COc1ccc(C#N)cc1)c1cc2cc(C#N)c(C(F)(F)F)cc2[nH]1 (stereo not shown) [Compound #426, 2-[2-(4-Cyano-phenoxy)-1-hydroxy-1-methyl-ethyl]-6-trifluoromethyl-1H-indole-5-carbonitrile] | inactive |
| CCS(=O)(=O)CC(C)(O)c1cc2cc(C#N)c(C(F)(F)F)cc2[nH]1 (single isomer, unassigned) [compound 397] | inactive |
| CCSCC(O)c1[nH]c2cc(C(F)(F)F)c(C#N)cc2c1I (racemic) [compound 411] | inactive |
| CC(O)(c1cc2cc(C#N)c(C(F)(F)F)cc2n1CC#N)C(F)(F)F (racemic) [compound 331] | active |
| CCSCC(C)(O)c1cc2cc(Cl)c(C(F)(F)F)cc2n1S(C)(=O)=O (racemic) [compound 146] | inactive |
| CCS(=O)(=O)CC(O)c1cc2cc(C#N)c(C(F)(F)F)cc2[nH]1 (racemic) [compound 412] | inactive |
| CC(O)(CSCc1ccccn1)c1cc2cc([N+](=O)[O-])c(C(F)(F)F)cc2[nH]1 (racemic) [compound 204] | inactive |
| CC(O)(C[S+]([O-])CC(F)(F)F)c1cc2cc([N+](=O)[O-])c(C(F)(F)F)cc2[nH]1 (mixture of isomers) [compound 205] | active |
| CC(O)(C[S+]([O-])c1ccc(F)cc1)c1cc2cc(Cl)c(C(F)(F)F)cc2[nH]1 (stereo not shown) [compound 113] | inactive |
| CCSCC(O)c1[nH]c2cc(C(F)(F)F)c(C#N)cc2c1Br (racemic) [compound 413] | inactive |
| COCn1c(C(C)(O)C(F)(F)F)cc2cc(C#N)c(C(F)(F)F)cc21 (racemic) [compound 332] | active |
| CCS(=O)(=O)CC(C)(O)c1cc2cc(Cl)c(C(F)(F)F)cc2[nH]1 (racemic) [compound 404] | active |
